Each block holds one compound with its values, some of them ahead of it.
What was measured:
NTS1 = NTS1 (Rattus norvegicus, UniProt P20789); assay: FLIPR calcium mobilization assay at NTS1; assay type: cell-based; settings: 17: agonist and antagonist screen at 10 μM; 9, 14b, 16b: data not shown
rNTS2 [1] = target: T1, rNTS2 (Rattus norvegicus, UniProt Q63384); assay: FLIPR calcium mobilization assay in CHO cell line stably expressing rNTS2; assay type: cell-based
T1 sequence (Q63384 1-416): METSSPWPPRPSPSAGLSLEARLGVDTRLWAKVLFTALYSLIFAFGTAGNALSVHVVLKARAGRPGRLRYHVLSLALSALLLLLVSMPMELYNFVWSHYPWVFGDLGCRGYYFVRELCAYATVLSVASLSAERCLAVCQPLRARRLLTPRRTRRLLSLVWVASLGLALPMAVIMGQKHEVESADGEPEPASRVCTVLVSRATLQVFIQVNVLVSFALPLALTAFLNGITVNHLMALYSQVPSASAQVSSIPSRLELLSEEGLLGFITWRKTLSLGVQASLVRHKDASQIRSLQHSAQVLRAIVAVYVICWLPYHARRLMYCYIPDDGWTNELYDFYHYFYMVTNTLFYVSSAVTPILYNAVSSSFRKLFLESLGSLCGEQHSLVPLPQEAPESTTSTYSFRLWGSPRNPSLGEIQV

rNTS2 [2] = target: T1, rNTS2; assay: [125I]NT competition binding assay at NTS2; settings: relative to 9
rNTS2 [3] = target: T1, rNTS2; settings: Emax value is % of 4; cited from earlier work
rNTS1 = rNTS1 (Rattus norvegicus, UniProt P20789); settings: read-out: Binding Assay NTS1 Ki; [125I]NT, bound; cited from earlier work
Sequence of rNTS1 (P20789 whole entry): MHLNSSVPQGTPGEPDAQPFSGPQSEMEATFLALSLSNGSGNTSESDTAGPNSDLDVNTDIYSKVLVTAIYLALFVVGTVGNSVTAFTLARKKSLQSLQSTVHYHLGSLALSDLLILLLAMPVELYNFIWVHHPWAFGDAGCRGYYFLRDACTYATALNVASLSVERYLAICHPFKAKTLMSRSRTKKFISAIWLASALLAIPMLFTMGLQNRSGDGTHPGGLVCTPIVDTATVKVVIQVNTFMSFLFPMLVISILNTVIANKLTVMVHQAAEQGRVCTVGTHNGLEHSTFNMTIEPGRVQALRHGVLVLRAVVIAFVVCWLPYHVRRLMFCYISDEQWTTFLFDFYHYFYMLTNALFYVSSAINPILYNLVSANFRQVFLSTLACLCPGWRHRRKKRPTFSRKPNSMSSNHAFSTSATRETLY

Sequence of NTS1 (P20789 whole entry): as above

Structure (SMILES): O=C(O)c1cc(Nc2nc(-c3ccccc3)c3cc(Cl)ccc3n2)ccc1O [Compound 17]
Activity in the calcium mobilization assay at NTS1 (NTS1): devoid of activity

Structure (SMILES): COc1cccc(OC)c1-c1nc(C(=O)N[C@H](C(=O)O)C2CCCCC2)nc2ccc(Cl)cc12 [Compound 14b]
Fold less active than NT in the NTS2 functional assay (rNTS2 [1]; IC50 comparison with NT): 25 fold | Fold weaker than 9 in NTS2 binding (Ki) (rNTS2 [2]): 5 fold | Activity in the calcium mobilization assay at NTS1 (NTS1): failed to show activity

Structure (SMILES): C[C@@H]1CN([C@H]2CC[C@](C#N)(c3ccc(F)cc3)CC2)CC[C@]1(C(=O)O)c1ccccc1 [Compound 5, levocabastine]
FLIPR Assay NTS2 Emax (rNTS2 [3]): 16±3% | Ki (rNTS1): > 25 µM

Results, then the compound that gave them:

Fold lower activity than 9 in NTS2 FLIPR assay (EC50) (rNTS2 [1]; relative to 9): roughly 10 fold | Fold weaker than 9 in NTS2 binding (Ki) (rNTS2 [2]): 11 fold | Activity in the calcium mobilization assay at NTS1 (NTS1): failed to show activity
Structure (SMILES): COc1cccc(OC)c1-c1nc(C(=O)NC2(C(=O)O)CCCCC2)nc2ccc(Cl)cc12 [Compound 16b]

inhibition at 10 µM (rNTS2 [1]; CHO, read-out: % inhibition of calcium release mediated by 4 at NTS2): < 30%
Structure (SMILES): COc1cccc(OC)c1-c1cc(C(=O)N[C@@H](CC(C)C)C(=O)O)nn1-c1ccc(F)cc1 [Compound 21, reference compound]

Emax (rNTS2 [1]; CHO, read-out: FLIPR Assay NTS2 Emax): 100 ± 5%
Structure (SMILES): COc1cccc(OC)c1-c1cc(C(=O)NC2(C(=O)O)C3CC4CC(C3)CC2C4)nn1-c1ccc(C(=O)N(C)CCCN(C)C)cc1C(C)C (centres unmarked) [Compound 4, reference compound]

— paper PMC4296974 (Bioorganic & medicinal chemistry letters, 2014)
